In US20140137294A1, “GLUCOSINOLATE TRANSPORTER PROTEIN AND USES THEREOF” (UNIVERSITY OF COPENHAGEN, priority 2010, published 2014):
Residue numbers refer to the chain shown, from its start. Names and notes keep the numbering of the source. Where a SMILES comes first, the peptide text is derived from it.

T1: AtGTR1 (Arabidopsis thaliana, UniProt Q944G5)
T1 construct: A library of Arabidopsis transporters available as full length cDNAs from the RIKEN bioresource center; expressed in transfected cells; host or cells: Xenopus oocytes injected with in vitro transcribed cRNA
T1 sequence (Q944G5 31-636 limits assumed): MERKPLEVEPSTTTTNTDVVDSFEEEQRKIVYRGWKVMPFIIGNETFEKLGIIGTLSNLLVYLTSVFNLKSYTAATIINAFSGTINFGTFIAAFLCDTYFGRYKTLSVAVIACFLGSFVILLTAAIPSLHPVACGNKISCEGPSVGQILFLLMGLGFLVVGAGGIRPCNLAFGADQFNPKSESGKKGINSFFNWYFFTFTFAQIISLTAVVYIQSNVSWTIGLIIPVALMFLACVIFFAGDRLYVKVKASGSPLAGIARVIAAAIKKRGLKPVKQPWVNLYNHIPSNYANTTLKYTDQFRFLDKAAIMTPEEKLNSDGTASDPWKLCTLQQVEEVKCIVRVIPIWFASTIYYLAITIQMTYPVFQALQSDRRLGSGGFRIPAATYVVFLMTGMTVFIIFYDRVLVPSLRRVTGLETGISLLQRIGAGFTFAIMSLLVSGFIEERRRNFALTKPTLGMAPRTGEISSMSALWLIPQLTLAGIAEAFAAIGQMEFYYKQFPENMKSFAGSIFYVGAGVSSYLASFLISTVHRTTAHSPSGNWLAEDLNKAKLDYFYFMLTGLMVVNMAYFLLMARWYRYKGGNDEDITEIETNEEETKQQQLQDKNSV

T2: AtGTR2 (Arabidopsis thaliana, UniProt Q9LV10)
T2 construct: expressed in transfected cells; host or cells: Xenopus oocytes injected with in vitro transcribed cRNA (vector pNB1u)
T2 sequence (Q9LV10 1-616): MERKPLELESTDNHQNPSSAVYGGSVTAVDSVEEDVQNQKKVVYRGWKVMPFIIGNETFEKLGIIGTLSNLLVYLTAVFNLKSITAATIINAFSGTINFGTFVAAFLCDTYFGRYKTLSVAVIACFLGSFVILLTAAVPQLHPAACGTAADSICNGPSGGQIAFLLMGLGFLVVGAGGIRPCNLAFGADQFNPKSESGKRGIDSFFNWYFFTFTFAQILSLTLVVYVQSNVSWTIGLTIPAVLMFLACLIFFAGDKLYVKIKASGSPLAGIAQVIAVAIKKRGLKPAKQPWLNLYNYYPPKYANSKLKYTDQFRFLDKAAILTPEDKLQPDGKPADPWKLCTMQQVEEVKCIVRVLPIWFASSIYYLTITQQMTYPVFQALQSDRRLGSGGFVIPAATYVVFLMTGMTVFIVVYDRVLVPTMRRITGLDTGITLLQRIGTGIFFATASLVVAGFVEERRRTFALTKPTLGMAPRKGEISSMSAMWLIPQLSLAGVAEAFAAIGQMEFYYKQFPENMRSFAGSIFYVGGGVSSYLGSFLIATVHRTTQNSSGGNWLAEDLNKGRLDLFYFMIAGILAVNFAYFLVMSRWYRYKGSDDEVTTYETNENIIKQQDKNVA

B1: GTR1 S22A: GTR1 of SEQ ID NO: 2 with S at position 22 for A, mimicking dephosphorylation (protein, listed as Arabidopsis thaliana)
chain: T1 sequence (Q944G5 31-636 limits assumed) with S22A
B2: GTR1 S22D: GTR1 of SEQ ID NO: 2 with S at position 22 for D, mimicking phosphorylation (protein, listed as Arabidopsis thaliana)
chain: T1 sequence (Q944G5 31-636 limits assumed) with S22D
B3: GTR2 T58A: GTR2 of SEQ ID No: 4 with T at position 58 for A (protein, listed as Arabidopsis thaliana)
chain: T2 sequence (Q9LV10 1-616) with T58A
B4: GTR2 T58D: GTR2 of SEQ ID No: 4 with T at position 58 for D (protein, listed as Arabidopsis thaliana)
chain: T2 sequence (Q9LV10 1-616) with T58D
B5: GTR1 T105A: GTR1 of SEQ ID NO: 2 with T at position 105 for A (protein, listed as Arabidopsis thaliana)
chain: T1 sequence (Q944G5 31-636 limits assumed) with T105A
B6: GTR1 T105D: GTR1 of SEQ ID NO: 2 with T at position 105 for D (protein, listed as Arabidopsis thaliana)
chain: T1 sequence (Q944G5 31-636 limits assumed) with T105D
B7: GTR2 T117A: GTR2 of SEQ ID No: 4 with T at position 117 for A (protein, listed as Arabidopsis thaliana)
chain: T2 sequence (Q9LV10 1-616) with T117A
B8: GTR2 T117D: GTR2 of SEQ ID No: 4 with T at position 117 for D (protein, listed as Arabidopsis thaliana)
chain: T2 sequence (Q9LV10 1-616) with T117D

The molecules below were run against T1, AtGTR1 (assay: Substrate-induced currents in voltage-clamped Xenopus oocytes expressing AtGTR1). Conditions: 100 μM substrate, pH 5, voltage clamped at −50 mV, AtGTR1.
Type: cell-based
Molecule `C[S+]([O-])CCCC/C(=N/OS(=O)(=O)O)S[C@@H]1O[C@H](CO)[C@@H](O)[C@H](O)[C@H]1O` (stereo partly shown) has an inward current of roughly 10 nA.

Same assay, conditions: 133 μM, pH 5, AtGTR1
In the case of `C[C@H](N)C(=O)N[C@@H](Cc1cnc[nH]1)C(=O)O` [ala-his] (H-Ala-His-OH), the currents on perfusion is reported as “did not result in any detectable currents”. `CC(NC(=O)C(N)CC(=O)O)C(=O)O` (stereo not shown) [asp-ala] was tested, and the currents on perfusion was “did not result in any detectable currents”. With `NCC(=O)NCC(=O)NCC(=O)O` [gly-gly-gly] (H-Gly-Gly-Gly-OH) the currents on perfusion was “did not result in any detectable currents”. `CC(C)C[C@H](NC(=O)CN)C(=O)O` [gly-leu] was tested, and the currents on perfusion was “did not result in any detectable currents”. With `CSCC[C@H](N)C(=O)N[C@@H](C)C(=O)N[C@@H](CO)C(=O)O` [met-ala-ser] (H-Met-Ala-Ser-OH) the currents on perfusion was “did not result in any detectable currents”.

What follows are molecules tested against T2, AtGTR2 (assay: Glucosinolate uptake by AtGTR2 expressing oocytes, LC-MS analysis of oocyte extracts). Conditions: data not shown.
Type: cell-based
`C[S+]([O-])CCCC/C(=N/OS(=O)(=O)O)S[C@@H]1O[C@H](CO)[C@@H](O)[C@H](O)[C@H]1O` (stereo partly shown) was tested, and the “uptake by AtGTR2 measured by LC-MS analysis of oocyte extracts” value was “took up”. For `O=S(=O)(O)O/N=C(\Cc1ccc(O)cc1)S[C@@H]1O[C@H](CO)[C@@H](O)[C@H](O)[C@H]1O` [pOHBG, p-hydroxybenzyl-GSL], the “uptake by AtGTR2 measured by LC-MS analysis of oocyte extracts” value was “took up”.

The molecules below were run on Xenopus oocytes (assay: 4-MTB import by phosphorylation/dephosphorylation mimicking GTR1 and GTR2 constructs in oocytes (LC-MS)). Conditions: 100 μM 4-MTB, Kulori pH 5, one hour.
Type: cell-based
With B1 the 4-MTB transport activity was “turns of f transport completely”. For B2, the 4-MTB transport activity was “keeps the import intact”. B3 was tested, and the 4-MTB transport activity was “keeps the transport activity intact”. B4 was tested, and the 4-MTB transport activity was “inactivates the transport”. In the case of B5, the 4-MTB transport activity is reported as “block the transport activity”. For B6, the 4-MTB transport activity was “block the transport activity”. In the case of B7, the 4-MTB transport activity is reported as “block the transport activity”. In the case of B8, the 4-MTB transport activity is reported as “block the transport activity”.
